In one test the target is human GCGR (Homo sapiens, UniProt P47871). In words: Peptide-receptor mediated cAMP accumulation (LANCE Ultra cAMP) in CHO-K1 cells transfected with human GCGR. Format: cell-based. The following applies: read-out: GluR pEC50 (converted). (In general: Changes in cAMP serve as a functional read-out for many G protein-coupled receptors.)
The target of a further test is human GLP-1R (Homo sapiens, UniProt P43220). In words: Peptide-receptor mediated cAMP accumulation (LANCE Ultra cAMP) in CHO-K1 cells transfected with human GLP-1R. Format: cell-based. The conditions noted are these: Table 7; GLP-1R; read-out: GLP-1R pEC50 (converted).
Sequence of human GLP-1R (P43220 24-463): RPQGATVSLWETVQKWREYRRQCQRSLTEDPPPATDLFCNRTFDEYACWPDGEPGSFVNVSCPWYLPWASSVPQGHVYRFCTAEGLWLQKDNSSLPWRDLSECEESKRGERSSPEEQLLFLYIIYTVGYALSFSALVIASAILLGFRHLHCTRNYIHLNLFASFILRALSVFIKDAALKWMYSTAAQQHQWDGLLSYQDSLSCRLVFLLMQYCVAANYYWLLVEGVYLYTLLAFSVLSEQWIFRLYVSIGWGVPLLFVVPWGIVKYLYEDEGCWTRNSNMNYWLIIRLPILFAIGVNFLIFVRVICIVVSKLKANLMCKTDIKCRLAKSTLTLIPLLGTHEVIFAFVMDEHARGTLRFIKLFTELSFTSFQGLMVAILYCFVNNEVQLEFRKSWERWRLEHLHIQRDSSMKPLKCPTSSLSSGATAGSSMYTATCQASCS

*1 amine or outer side, *2 acyl side, *3 side chain or, on linkers, in order; H or OH if unused. Where a SMILES comes first, the peptide text is derived from it. Side-chain parts run from the residue outwards. [ ]: non-standard residue; d: D form. The star is where a group is joined. C18 diacid = O=C(O)CCCCCCCCCCCCCCCCC(=O)*; γGlu = O=C(O)[C@H](CCC(=O)[*:2])N[*:1]; Palmitoyl = CCCCCCCCCCCCCCCC(=O)*; AEEA = NCCOCCOCC(=O)O; Aib = CC(C)(N)C(=O)O

Sequence of human GCGR (P47871 26-477): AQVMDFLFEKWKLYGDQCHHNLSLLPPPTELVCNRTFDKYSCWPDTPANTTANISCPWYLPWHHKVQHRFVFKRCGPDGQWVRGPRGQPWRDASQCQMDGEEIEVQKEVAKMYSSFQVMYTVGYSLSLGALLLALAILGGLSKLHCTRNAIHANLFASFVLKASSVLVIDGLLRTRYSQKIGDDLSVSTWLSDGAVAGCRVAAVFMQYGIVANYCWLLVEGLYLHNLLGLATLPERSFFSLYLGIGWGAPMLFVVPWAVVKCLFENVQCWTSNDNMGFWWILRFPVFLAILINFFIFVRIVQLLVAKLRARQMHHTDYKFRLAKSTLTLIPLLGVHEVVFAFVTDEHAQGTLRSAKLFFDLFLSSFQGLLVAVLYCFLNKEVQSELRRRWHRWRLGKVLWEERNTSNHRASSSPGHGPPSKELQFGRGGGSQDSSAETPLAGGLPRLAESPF

Take `CCCCCCCCCCCCCCCC(=O)N[C@@H](CCC(=O)NCCCC[C@H](NC(=O)[C@@H](NC(=O)[C@H](Cc1ccccc1)NC(=O)[C@H](CCC(=O)O)NC(=O)[C@H](CCC(N)=O)NC(=O)[C@H](C)NC(=O)[C@H](CO)NC(=O)[C@H](CCCCN)NC(=O)C(C)(C)NC(=O)[C@H](CC(=O)O)NC(=O)[C@H](CC(C)C)NC(=O)[C@H](Cc1ccc(O)cc1)NC(=O)[C@H](CCCCN)NC(=O)[C@H](CO)NC(=O)[C@H](Cc1ccc(O)cc1)NC(=O)[C@H](CC(=O)O)NC(=O)[C@H](CO)NC(=O)[C@@H](NC(=O)[C@H](Cc1ccccc1)NC(=O)[C@@H](NC(=O)CNC(=O)[C@H](Cc1c[nH]cn1)NC(=O)[C@H](CO)NC(=O)[C@@H](N)Cc1ccc(O)cc1)[C@@H](C)O)[C@@H](C)O)C(C)C)C(=O)N[C@@H](Cc1c[nH]c2ccccc12)C(=O)N[C@@H](CC(C)C)C(=O)N[C@@H](CCC(=O)O)C(=O)N[C@@H](CC(=O)O)C(=O)N[C@@H](CCC(=O)O)C(=O)N1CCC[C@H]1C(=O)N[C@@H](CO)C(=O)N[C@@H](CO)C(=O)NCC(=O)N[C@@H](C)C(=O)N1CCC[C@H]1C(=O)N1CCC[C@H]1C(=O)N1CCC[C@H]1C(=O)N[C@@H](CO)C(=O)O)C(=O)O` [Compound B10]: the EC50 was 0.126 nM at human GCGR and greater than 1000 nM at human GLP-1R.
Take `CCCCCCCCCCCCCCCC(=O)N[C@@H](CCC(=O)NCCCC[C@H](NC(=O)[C@H](CC(=O)O)NC(=O)[C@H](CC(C)C)NC(=O)[C@H](Cc1ccc(O)cc1)NC(=O)[C@H](CCCCN)NC(=O)[C@H](CO)NC(=O)[C@H](Cc1ccc(O)cc1)NC(=O)[C@H](CC(=O)O)NC(=O)[C@H](CO)NC(=O)[C@@H](NC(=O)[C@H](Cc1ccccc1)NC(=O)[C@@H](NC(=O)CNC(=O)[C@H](Cc1c[nH]cn1)NC(=O)[C@H](CO)NC(=O)[C@@H](N)Cc1ccc(O)cc1)[C@@H](C)O)[C@@H](C)O)C(=O)N[C@@H](CCCCN)C(=O)N[C@@H](CO)C(=O)N[C@@H](C)C(=O)N[C@@H](CCC(N)=O)C(=O)N[C@@H](CCC(=O)O)C(=O)N[C@@H](Cc1ccccc1)C(=O)N[C@H](C(=O)NC(C)(C)C(=O)N[C@@H](Cc1c[nH]c2ccccc12)C(=O)N[C@@H](CC(C)C)C(=O)N[C@@H](CCC(=O)O)C(=O)N[C@@H](CC(=O)O)C(=O)N[C@@H](CCC(=O)O)C(=O)N1CCC[C@H]1C(=O)N[C@@H](CO)C(=O)N[C@@H](CO)C(=O)NCC(=O)N[C@@H](C)C(=O)N1CCC[C@H]1C(=O)N1CCC[C@H]1C(=O)N1CCC[C@H]1C(=O)N[C@@H](CO)C(=O)O)C(C)C)C(=O)O` [Compound B11]: the EC50 was 0.0501 nM on human GCGR and 501 nM on human GLP-1R.
With `CCCCCCCCCCCCCCCC(=O)N[C@@H](CCC(=O)NCCCC[C@H](NC(=O)[C@H](CC(=O)O)NC(=O)[C@H](CO)NC(=O)[C@@H](NC(=O)[C@H](Cc1ccccc1)NC(=O)[C@@H](NC(=O)CNC(=O)[C@H](Cc1c[nH]cn1)NC(=O)[C@H](CO)NC(=O)[C@@H](N)Cc1ccc(O)cc1)[C@@H](C)O)[C@@H](C)O)C(=O)N[C@@H](CO)C(=O)N[C@@H](CCCCN)C(=O)N[C@@H](Cc1ccc(O)cc1)C(=O)N[C@@H](CC(C)C)C(=O)N[C@@H](CC(=O)O)C(=O)NC(C)(C)C(=O)N[C@@H](CCCCN)C(=O)N[C@@H](CO)C(=O)N[C@@H](C)C(=O)N[C@@H](CCC(N)=O)C(=O)N[C@@H](CCC(=O)O)C(=O)N[C@@H](Cc1ccccc1)C(=O)N[C@H](C(=O)NC(C)(C)C(=O)N[C@@H](Cc1c[nH]c2ccccc12)C(=O)N[C@@H](CC(C)C)C(=O)N[C@@H](CCC(=O)O)C(=O)N[C@@H](CC(=O)O)C(=O)N[C@@H](CCC(=O)O)C(=O)N1CCC[C@H]1C(=O)N[C@@H](CO)C(=O)N[C@@H](CO)C(=O)NCC(=O)N[C@@H](C)C(=O)N1CCC[C@H]1C(=O)N1CCC[C@H]1C(=O)N1CCC[C@H]1C(=O)N[C@@H](CO)C(=O)O)C(C)C)C(=O)O` [Compound B12] (H-YSHGTFTSDK([γGlu-Palmitoyl])SKYLD[Aib]KSAQEFV[Aib]WLEDEPSSGAPPPS-OH), the EC50 at human GCGR is 0.00316 nM; on human GLP-1R, 63.1 nM.
Regarding `CC(C)C[C@H](NC(=O)[C@H](Cc1ccc(O)cc1)NC(=O)[C@H](CCCCN)NC(=O)[C@H](CO)NC(=O)[C@H](Cc1ccc(O)cc1)NC(=O)[C@H](CC(=O)O)NC(=O)[C@H](CO)NC(=O)[C@@H](NC(=O)[C@H](Cc1ccccc1)NC(=O)[C@@H](NC(=O)CNC(=O)[C@H](Cc1c[nH]cn1)NC(=O)[C@H](CO)NC(=O)[C@@H](N)Cc1ccc(O)cc1)[C@@H](C)O)[C@@H](C)O)C(=O)N[C@@H](CC(=O)O)C(=O)NC(C)(C)C(=O)N[C@@H](CCCCN)C(=O)N[C@@H](CO)C(=O)N[C@@H](C)C(=O)N[C@@H](CCC(N)=O)C(=O)N[C@@H](CCC(=O)O)C(=O)N[C@@H](Cc1ccccc1)C(=O)N[C@H](C(=O)NC(C)(C)C(=O)N[C@@H](Cc1c[nH]c2ccccc12)C(=O)N[C@@H](CC(C)C)C(=O)N[C@@H](CCC(=O)O)C(=O)N[C@@H](CC(=O)O)C(=O)N[C@@H](CCC(=O)O)C(=O)N1CCC[C@H]1C(=O)N[C@@H](CO)C(=O)N[C@@H](CO)C(=O)N[C@@H](CCCCNC(=O)COCCOCCNC(=O)COCCOCCNC(=O)CC[C@H](NC(=O)CCCCCCCCCCCCCCCCC(=O)O)C(=O)O)C(=O)N[C@@H](C)C(=O)N1CCC[C@H]1C(=O)N1CCC[C@H]1C(=O)N1CCC[C@H]1C(=O)N[C@@H](CO)C(=O)O)C(C)C` [Compound B13], the EC50 at human GCGR was 0.631 nM; on human GLP-1R, greater than 1000 nM.
On to `CC(C)C[C@H](NC(=O)[C@H](Cc1ccc(O)cc1)NC(=O)[C@H](CCCCN)NC(=O)[C@H](CO)NC(=O)[C@H](CCCCNC(=O)COCCOCCNC(=O)COCCOCCNC(=O)CC[C@H](NC(=O)CCCCCCCCCCCCCCCCC(=O)O)C(=O)O)NC(=O)[C@H](CC(=O)O)NC(=O)[C@H](CO)NC(=O)[C@@H](NC(=O)[C@H](Cc1ccccc1)NC(=O)[C@@H](NC(=O)CNC(=O)[C@H](Cc1c[nH]cn1)NC(=O)[C@H](CO)NC(=O)[C@@H](N)Cc1ccc(O)cc1)[C@@H](C)O)[C@@H](C)O)C(=O)N[C@@H](CC(=O)O)C(=O)NC(C)(C)C(=O)N[C@@H](CCCCN)C(=O)N[C@@H](CO)C(=O)N[C@@H](C)C(=O)N[C@@H](CCC(N)=O)C(=O)N[C@@H](CCC(=O)O)C(=O)N[C@@H](Cc1ccccc1)C(=O)N[C@H](C(=O)NC(C)(C)C(=O)N[C@@H](Cc1c[nH]c2ccccc12)C(=O)N[C@@H](CC(C)C)C(=O)N[C@@H](CCC(=O)O)C(=O)N[C@@H](CC(=O)O)C(=O)N[C@@H](CCC(=O)O)C(=O)N1CCC[C@H]1C(=O)N[C@@H](CO)C(=O)N[C@@H](CO)C(=O)NCC(=O)N[C@@H](C)C(=O)N1CCC[C@H]1C(=O)N1CCC[C@H]1C(=O)N1CCC[C@H]1C(=O)N[C@@H](CO)C(=O)O)C(C)C` [Compound B16] (H-YSHGTFTSDK([AEEA-AEEA-γGlu-C18 diacid])SKYLD[Aib]KSAQEFV[Aib]WLEDEPSSGAPPPS-OH), for which the EC50 at human GCGR is 3.16 nM; at human GLP-1R it was 5.01 nM.
On the same counts, the results for `CCCCCCCCCCCCCCCC(=O)N[C@@H](CCC(=O)NCCCC[C@H](NC(=O)[C@H](CO)NC(=O)[C@H](CO)NC(=O)[C@@H]1CCCN1C(=O)[C@H](CCC(=O)O)NC(=O)[C@H](CC(=O)O)NC(=O)[C@H](CCC(=O)O)NC(=O)[C@H](CC(C)C)NC(=O)[C@H](Cc1c[nH]c2ccccc12)NC(=O)C(C)(C)NC(=O)[C@@H](NC(=O)[C@H](Cc1ccccc1)NC(=O)[C@H](CCC(=O)O)NC(=O)[C@H](CCC(N)=O)NC(=O)[C@H](C)NC(=O)[C@H](CCCNC(=N)N)NC(=O)[C@H](CCCCN)NC(=O)C(C)(C)NC(=O)[C@H](CC(=O)O)NC(=O)[C@H](CC(C)C)NC(=O)[C@H](Cc1ccc(O)cc1)NC(=O)[C@H](CCCCN)NC(=O)[C@H](CO)NC(=O)[C@H](Cc1ccc(O)cc1)NC(=O)[C@H](CC(=O)O)NC(=O)[C@H](CO)NC(=O)[C@@H](NC(=O)[C@H](Cc1ccccc1)NC(=O)[C@@H](NC(=O)CNC(=O)[C@H](CCC(N)=O)NC(=O)[C@H](CO)NC(=O)[C@@H](N)Cc1c[nH]c2ccccc12)[C@@H](C)O)[C@@H](C)O)C(C)C)C(=O)N[C@@H](C)C(=O)N1CCC[C@H]1C(=O)N1CCC[C@H]1C(=O)N1CCC[C@H]1C(=O)N[C@@H](CO)C(=O)O)C(=O)O` [Compound B17] (H-WSQGTFTSDYSKYLD[Aib]KRAQEFV[Aib]WLEDEPSSK([γGlu-Palmitoyl])APPPS-OH) are 0.0316 nM and greater than 1000 nM.
As for `CCCCCCCCCCCCCCCC(=O)N[C@@H](CCC(=O)NCCCC[C@H](NC(=O)[C@@H](NC(=O)[C@H](Cc1ccccc1)NC(=O)[C@H](CCC(=O)O)NC(=O)[C@H](CCC(N)=O)NC(=O)[C@H](C)NC(=O)[C@H](CCCNC(=N)N)NC(=O)[C@H](CCCCN)NC(=O)C(C)(C)NC(=O)[C@H](CC(=O)O)NC(=O)[C@H](CC(C)C)NC(=O)[C@H](Cc1ccc(O)cc1)NC(=O)[C@H](CCCCN)NC(=O)[C@H](CO)NC(=O)[C@H](Cc1ccc(O)cc1)NC(=O)[C@H](CC(=O)O)NC(=O)[C@H](CO)NC(=O)[C@@H](NC(=O)[C@H](Cc1ccccc1)NC(=O)[C@@H](NC(=O)CNC(=O)[C@H](CCC(N)=O)NC(=O)[C@H](CO)NC(=O)[C@@H](N)Cc1c[nH]c2ccccc12)[C@@H](C)O)[C@@H](C)O)C(C)C)C(=O)N[C@@H](Cc1c[nH]c2ccccc12)C(=O)N[C@@H](CC(C)C)C(=O)N[C@@H](CCC(=O)O)C(=O)N[C@@H](CC(=O)O)C(=O)N[C@@H](CCC(=O)O)C(=O)N1CCC[C@H]1C(=O)N[C@@H](CO)C(=O)N[C@@H](CO)C(=O)NCC(=O)N[C@@H](C)C(=O)N1CCC[C@H]1C(=O)N1CCC[C@H]1C(=O)N1CCC[C@H]1C(=O)N[C@@H](CO)C(=O)O)C(=O)O` [Compound B18] (H-WSQGTFTSDYSKYLD[Aib]KRAQEFVK([γGlu-Palmitoyl])WLEDEPSSGAPPPS-OH), the EC50 was 0.0631 nM at human GCGR and greater than 1000 nM on human GLP-1R.

(Values after patent US20240239861A1, “GLUCAGON-RECEPTOR SELECTIVE POLYPEPTIDES AND METHODS OF USE THEREOF” (i2O Therapeutics, Inc., priority 2016, published 2024).)
